According to patent publication US20080025940A1, “Administration of 3-sulfanylpropanamide compounds for stimulating hair and eyelash growth and/or for stopping the loss and/or limiting the depigmentation thereof” (L'OREAL, priority 2005, published 2008):

The molecules below were run against T1, 15-PGDH (Homo sapiens, UniProt P15428) (assay: Test on 15-PGDH (spectrophotometric, NAD/PGE2, 340 nm)). Conditions: at 100 μM.
T1 construct: made in house
T1 sequence (P15428 1-266): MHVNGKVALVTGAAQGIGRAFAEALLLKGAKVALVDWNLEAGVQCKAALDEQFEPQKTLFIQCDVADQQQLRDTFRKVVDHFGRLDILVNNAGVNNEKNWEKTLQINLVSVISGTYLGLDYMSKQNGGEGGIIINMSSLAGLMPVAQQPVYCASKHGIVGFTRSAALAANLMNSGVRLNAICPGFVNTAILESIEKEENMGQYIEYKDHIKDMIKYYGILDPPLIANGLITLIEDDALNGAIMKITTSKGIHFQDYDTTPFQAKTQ
Type: biochemical
Experimental: The enzyme 15-PGDH is obtained as described in FR 02/05067 filed in the name of L'Oreal, as a suspension in a medium adjusted to a concentration of 0.3 mg/mL and then blocked at −80° C. For the purposes of the test, this suspension is thawed and stored in ice.
In parallel, a 100 mM, pH 7.4 Tris buffer containing 0.1 mM of dithiothreitol (D5545, Sigma-Aldrich, L'isle D'Abeau Chesne, BP 701, 38297, Saint Quentin Fallavier), 1.5 mM of β-NAD (N6522, Sigma-Aldrich, L'isle D'Abeau Chesne, BP 701, 38297, Saint Quentin Fallavier), and 50 μM of prostaglandin E2 (P4172, Sigma-Aldrich, L'isle D'Abeau Chesne, BP 701, 38297, Saint Quentin Fallavier) is prepared.
0.965 ml of this buffer (brought to 37° C. beforehand) is introduced into the cuvette of a spectrophotometer (Perkin-Elmer, Lambda 2) thermostatically maintained at 37° C., the measuring wavelength of which is set at 340 nm. 0.035 mL of enzymatic suspension at 37° C. is introduced into the cuvette concomitantly with the recording (corresponding to an increase in the optical density at 340 nm). The maximum reaction rate is recorded.

Row | Molecule | inhibition at 100 µM [%]
1 | CSCCC(=O)Nc1ccccc1C(F)(F)F [Example 5, 3-(methylsulfanyl)-N-[2-(trifluoromethyl)phenyl]propanamide] | 21

Same assay, conditions: pH 7.4 Tris buffer, 37° C., 50 μM prostaglandin E2, 1.5 mM β-NAD; read-out: IC50 (concentration reducing the enzymatic activity of 15-PGDH by 50%, IC50dh)

Row | Molecule | IC50 [µM]
2 | CSCCC(=O)NCc1ccco1 [Example 2, N-(2-furylmethyl)-3-(methylsulfanyl)propanamide] | 9.8
3 | CCCCCCNC(=O)CCSC [Example 4, N-hexyl-3-(methylsulfanyl)propanamide] | 12
4 | CSCCC(=O)NCc1ccc(C)o1 [Example 1, N-[(5-methyl-2-furyl)methyl]-3-(methylsulfanyl)propanamide] | 0.8
5 | CSCCC(=O)NC(C)c1ccccc1 (centres unmarked) [Example 7, 3-(methylsulfanyl)-N-(1-phenylethyl)propanamide] | 14.7
6 | CSCCC(=O)NC1CCC1 [Example 8, N-cyclobutyl-3-(methylsulfanyl)propanamide] | 47
7 | COc1ccc(CNC(=O)CCSC)cc1 [Example 3, N-(4-methoxybenzyl)-3-(methylsulfanyl)propanamide] | 6
8 | N-benzyl-3-(methylsulfanyl)propanamide [Example 6] | 1.6
